Experimental data reported in patent US9115147B2, “Tricyclic derivatives and their pharmaceutical use and compositions” (Cephalon, Inc., priority 2009, dated 2015).
pKi: −log10 of the molar value.

What follows are compounds tested against T1, human 5-HT6 receptor (Homo sapiens, UniProt P50406) (assay: Human 5-HT6 Receptor Binding Assay ([3H]LSD, scintillation beads)). Settings: actual data; membranes of CHO-K1 cells with recombinant human 5-HT6 receptor, 4 nM [3H]LSD; read-out: Human 5-HT6 Ki.
T1 construct: host or cells: CHO-K1 cells, stably transfected; membranes prepared in house
T1 sequence (P50406 whole entry): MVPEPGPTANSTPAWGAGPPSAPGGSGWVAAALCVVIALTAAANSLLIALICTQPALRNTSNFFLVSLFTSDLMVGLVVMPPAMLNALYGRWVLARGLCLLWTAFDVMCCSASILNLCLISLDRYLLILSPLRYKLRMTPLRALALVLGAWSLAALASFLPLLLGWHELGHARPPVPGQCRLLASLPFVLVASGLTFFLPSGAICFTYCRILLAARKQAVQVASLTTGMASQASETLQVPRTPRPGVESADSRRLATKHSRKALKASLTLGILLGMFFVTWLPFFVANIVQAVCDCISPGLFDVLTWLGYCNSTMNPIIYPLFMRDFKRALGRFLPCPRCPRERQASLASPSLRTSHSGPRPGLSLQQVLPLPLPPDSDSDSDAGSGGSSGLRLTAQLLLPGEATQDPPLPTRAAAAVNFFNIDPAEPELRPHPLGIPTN
Description: Human 5-HT6 Receptor Binding Assay
Membranes were prepared from CHO-K1 cells stably transfected with the human 5-HT6 receptor (Euroscreen; ES-316-C). The cells were grown in Gibco Advanced DMEM-F12 (Cat#12634010) containing 2% dialyzed FBS (Hyclone Cat#SH30079.03). The cells were harvested in phosphate buffered saline (PBS) containing 0.1 mM EDTA and pelleted by centrifugation (1000×g), the supernatant was discarded and the pellets were stored at −80° C. prior to membrane preparation. Membranes were prepared as previously described (J Bio Chem. 1992, 267 (14) 9844-51). Briefly, frozen cell pellet was resuspended in a lysis buffer containing 5 mM Tris-HCl (pH 7.5), 5 mM EDTA and 1 complete EDTA-free protease inhibitor tablet (Roche Applied Science, Indianapolis, Ind.) per 50 mL buffer, and homogenized with a tissue homogenizer. The cell lysate was then centrifuged at 40,000×g for 30 min at 4° C. to collect the membranes. The membrane pellets were washed in membrane buffer (50 mM Tris-HCl (pH 7.5), 0.6 mM EDTA, 5 mM MgCl2, 1 complete EDTA-free protease inhibitor tablet per 50 mL buffer) using a tissue homogenizer. The membranes were centrifuged at 40,000×g for 30 min at 4° C. and the pellets were resuspended in membrane buffer containing 250 mM sucrose, and protein concentration was determined using the Coomassie Plus kit (Pierce Biotechnology, Rockford, Ill.).
Membranes prepared from cells expressing recombinant human 5-HT6 receptor (h5-HT6) were resuspended in assay buffer containing 50 mM Tris HCl, (pH7.4), 4 mM CaCl2, 10 μg/mL saponin, and 0.1% (w/v) ascorbic acid. Membranes were preincubated using 1.75 μg membrane protein and 0.25 mg FlashBlue scintillation beads (PerkinElmer catalogue #FB001) per well at 4° C. for 30 min. […] Test compounds or assay controls for total and non-specific binding were diluted in DMSO as 100× solutions and serially diluted by half log concentrations on a Perkin Elmer JANUS Automated Workstation. Serotonin (10 μM final concentration) was used to determine non-specific binding in the assay. Plates were read using the Microbeta Trilux 1450 LSC and luminescence counter. Data were analyzed by nonlinear […] using the dose-response equation (variable slope) to calculate IC50 in XLfit4 (ID Business Solutions Inc.): y=(Bottom+((Top−Bottom)/(1+((IC50/x)^Hill slope))))
Ki value was then calculated according to the Cheng-Prusoff method using the equation below (Cheng and Prusoff, 1973): Ki, app=IC50/(1+([radioligand]/Kd))
For `CC(C)N1CCC2c3ccc(S(=O)(=O)c4ccccc4)cc3OCC21` (single isomer, unassigned) [Example 57, 7-(phenylsulfonyl)-3-(propan-2-yl)-1,2,3,3a,4,9b-hexahydrochromeno[3,4-b]pyrrole], the pKi was 6.30.

Same assay, conditions: membranes of CHO-K1 cells with recombinant human 5-HT6 receptor, 4 nM [3H]LSD, Cheng-Prusoff; read-out: Human 5-HT6 Ki app
`O=S(=O)(c1ccccc1)c1ccc2c(c1)OCC1NCCC21` (single isomer, unassigned) [Example 55, 7-(phenylsulfonyl)-1,2,3,3a,4,9b-hexahydrochromeno[3,4-b]pyrrole] gave a pKi of over 6.30. `CC(C)N1CCC2c3ccc(S(=O)(=O)c4ccccc4)cc3OCC21` (single isomer, unassigned) [Example 57, 7-(phenylsulfonyl)-3-(propan-2-yl)-1,2,3,3a,4,9b-hexahydrochromeno[3,4-b]pyrrole] was tested, and the pKi was 6.00 to 6.30. For `CC(C)N1CCC2c3ccc(S(=O)(=O)c4ccccc4)cc3OCC21` (single isomer, unassigned) [Example 58, 7-(phenylsulfonyl)-3-(propan-2-yl)-1,2,3,3a,4,9b-hexahydrochromeno[3,4-b]pyrrole], the pKi was under 6.00. Work on `O=S(=O)(c1ccccc1)c1ccc2c(c1)OCC1C2CCN1C1CCC1` (single isomer, unassigned) [Example 59, 3-cyclobutyl-7-(phenylsulfonyl)-1,2,3,3a,4,9b-hexahydrochromeno[3,4-b]pyrrole] yielded a pKi of 6.00 to 6.30. Work on `O=S(=O)(c1ccccc1)c1ccc2c(c1)OCC1C2CCN1C1CCC1` (single isomer, unassigned) [Example 60, 3-cyclobutyl-7-(phenylsulfonyl)-1,2,3,3a,4,9b-hexahydrochromeno[3,4-b]pyrrole] yielded a pKi of under 6.00. `O=S(=O)(c1ccccc1)c1ccc2c(c1)OCC1C2CCN1C1CCCC1` (single isomer, unassigned) [Example 61, 3-cyclopentyl-7-(phenylsulfonyl)-1,2,3,3a,4,9b-hexahydrochromeno[3,4-b]pyrrole] was tested, and the pKi was over 6.30. `O=S(=O)(c1ccccc1)c1ccc2c(c1)OCC1C2CCN1C1CCCC1` (single isomer, unassigned) [Example 62, 3-cyclopentyl-7-(phenylsulfonyl)-1,2,3,3a,4,9b-hexahydrochromeno[3,4-b]pyrrole] was tested, and the pKi was under 6.00. For `O=S(=O)(c1ccccc1)c1ccc2c(c1)OCC1C2CCN1C1CCCCC1` (single isomer, unassigned) [Example 63, 3-cyclohexyl-7-(phenylsulfonyl)-1,2,3,3a,4,9b-hexahydrochromeno[3,4-b]pyrrole], the pKi was over 6.30. In the case of `O=S(=O)(c1ccccc1)c1ccc2c(c1)OCC1C2CCN1C1CCCCC1` (single isomer, unassigned) [Example 64, 3-cyclohexyl-7-(phenylsulfonyl)-1,2,3,3a,4,9b-hexahydrochromeno[3,4-b]pyrrole], the pKi was under 6.00. With `O=S(=O)(c1ccccc1)c1ccc2c(c1)OCC1C2CCN1C1CCOC1` (single isomer, unassigned) [Example 65, 7-(phenylsulfonyl)-3-(tetrahydrofuran-3-yl)-1,2,3,3a,4,9b-hexahydrochromeno[3,4-b]pyrrole] the pKi was 6.00 to 6.30. For `O=S(=O)(c1ccccc1)c1ccc2c(c1)OCC1C2CCN1C1CCOC1` (single isomer, unassigned) [Example 66, 7-(phenylsulfonyl)-3-(tetrahydrofuran-3-yl)-1,2,3,3a,4,9b-hexahydrochromeno[3,4-b]pyrrole], the pKi was under 6.00. `O=S(=O)(c1ccccc1)c1ccc2c(c1)OCC1C2CCN1CC(F)F` (single isomer, unassigned) [Example 67, 3-(2,2-difluoroethyl)-7-(phenylsulfonyl)-1,2,3,3a,4,9b-hexahydrochromeno[3,4-b]pyrrole] showed a pKi of over 6.30. In the case of `O=S(=O)(c1ccccc1)c1ccc2c(c1)OCC1C2CCN1C1CCOCC1` (single isomer, unassigned) [Example 68, 7-(phenylsulfonyl)-3-(tetrahydro-2H-pyran-4-yl)-1,2,3,3a,4,9b-hexahydrochromeno[3,4-b]pyrrole], the pKi was over 6.30. For `O=S(=O)(c1ccccc1)c1ccc2c(c1)OCC1C2CCN1C1CCOCC1` (single isomer, unassigned) [Example 69, 7-(phenylsulfonyl)-3-(tetrahydro-2H-pyran-4-yl)-1,2,3,3a,4,9b-hexahydrochromeno[3,4-b]pyrrole], the pKi was under 6.00. `O=S(=O)(c1ccccc1)c1ccc2c(c1)OCC1C2CCN1CC1CCCC1` (single isomer, unassigned) [Example 70, 3-(cyclopentylmethyl)-7-(phenylsulfonyl)-1,2,3,3a,4,9b-hexahydrochromeno[3,4-b]pyrrole] was tested, and the pKi was over 6.30. For `O=S(=O)(c1ccccc1)c1ccc2c(c1)OCC1C2CCN1CC1CCCC1` (single isomer, unassigned) [Example 71, 3-(cyclopentylmethyl)-7-(phenylsulfonyl)-1,2,3,3a,4,9b-hexahydrochromeno[3,4-b]pyrrole], the pKi was under 6.00. `O=S(=O)(c1ccccc1)c1ccc2c(c1)OCC1C2CCN1CC1CC1` (single isomer, unassigned) [Example 72, 3-(cyclopropylmethyl)-7-(phenylsulfonyl)-1,2,3,3a,4,9b-hexahydrochromeno[3,4-b]pyrrole] was tested, and the pKi was under 6.00. `O=S(=O)(c1cncc(Br)c1)c1ccc2c(c1)OCC1C2CCN1C1CCC1` (single isomer, unassigned) [Example 73, 7-[(5-bromopyridin-3-yl)sulfonyl]-3-cyclobutyl-1,2,3,3a,4,9b-hexahydrochromeno[3,4-b]pyrrole] showed a pKi of 6.00 to 6.30. `COc1cncc(S(=O)(=O)c2ccc3c(c2)OCC2C3CCN2C2CCC2)c1` (single isomer, unassigned) [Example 74, 3-cyclobutyl-7-[(5-methoxypyridin-3-yl)sulfonyl]-1,2,3,3a,4,9b-hexahydrochromeno[3,4-b]pyrrole] was tested, and the pKi was under 6.00. Compound `O=S(=O)(c1cncc(F)c1)c1ccc2c(c1)OCC1C2CCN1C1CCC1` (single isomer, unassigned) [Example 75, 3-cyclobutyl-7-[(5-fluoropyridin-3-yl)sulfonyl]-1,2,3,3a,4,9b-hexahydrochromeno[3,4-b]pyrrole] has a pKi of under 6.00. Compound `O=S(=O)(c1cncc(Cl)c1)c1ccc2c(c1)OCC1C2CCN1C1CCC1` (single isomer, unassigned) [Example 76, 7-[(5-chloropyridin-3-yl)sulfonyl]-3-cyclobutyl-1,2,3,3a,4,9b-hexahydrochromeno[3,4-b]pyrrole] has a pKi of over 6.30. Work on `O=S(=O)(c1ccccc1)c1ccc2c(c1)OCC1C2CCN1CC(F)F` (single isomer, unassigned) [Example 77, 3-(2,2-difluoroethyl)-7-(phenylsulfonyl)-1,2,3,3a,4,9b-hexahydrochromeno[3,4-b]pyrrole] yielded a pKi of under 6.00. For `O=S(=O)(c1cncc(Br)c1)c1ccc2c(c1)OCC1C2CCN1C1CCC1` (single isomer, unassigned) [Example 78, 7-[(5-bromopyridin-3-yl)sulfonyl]-3-cyclobutyl-1,2,3,3a,4,9b-hexahydrochromeno[3,4-b]pyrrole], the pKi was under 6.00. In the case of `COc1cncc(S(=O)(=O)c2ccc3c(c2)OCC2C3CCN2C2CCC2)c1` (single isomer, unassigned) [Example 79, 3-cyclobutyl-7-[(5-methoxypyridin-3-yl)sulfonyl]-1,2,3,3a,4,9b-hexahydrochromeno[3,4-b]pyrrole], the pKi was under 6.00. In the case of `O=S(=O)(c1cncc(F)c1)c1ccc2c(c1)OCC1C2CCN1C1CCC1` (single isomer, unassigned) [Example 80, 3-cyclobutyl-7-[(5-fluoropyridin-3-yl)sulfonyl]-1,2,3,3a,4,9b-hexahydrochromeno[3,4-b]pyrrole], the pKi was under 6.00.
